# Literature values in patent publication EP0266006A2, “Novel hypotensive diuretic peptides” (SHIONOGI SEIYAKU KABUSHIKI KAISHA trading under the name of …, priority 1986, dated 1988).
# Where no end group is shown, it is not given here.
# Settings: said to be so, unlike α type or γ type
substance,measurement,value
"β-hANP: antiparallel dimer of α-hANP (SLRRSSCFGGRMDRIGAQSGLGCNSFRY; ends and bridges not checked; also: antiparallel dimer of α-hANP; UniProt P01160 124-151, looked up)",diuretic action (duration),persistent
